From US20100179225A1, “POI Prevention” (CYTOKINE PHARMASCIENCES, INC., priority 2008, published 2010)

Assays:
MIP-1α mRNA = assay: Proinflammatory gene expression in ME, real-time RT-PCR: MIP-1α; type: in vivo, mice; conditions: 5 mg/kg i.v. preoperative, vs placebo IM
Source text: The small bowel of the animals was subjected to a standardized, surgical manipulation (IM) as described previously (Kalff J C, Schraut W H, Simmons R L et al. Surgical manipulation of the gut elicits an intestinal muscularis inflammatory response resulting in postsurgical ileus. Ann Surg 1998; 228:652-663; Wehner S, Schwarz N T, Hundsdoerfer R et al. Induction of IL-6 within the rodent intestinal muscularis after intestinal surgical stress. Surgery 2005; 137:436-446). In brief, after anesthesia a midline abdominal incision was made into the peritoneal cavity. […]
Proinflammatory gene expression was analyzed in placebo and CNI-1493 (5 mg/kg) treated animals at 1, 3, 6 and 24 hours after operation; n=5-7 each group. […] Total RNA was analyzed in ME specimen that was prepared as described before (Wehner S, Behrendt F F, Lyutenski B N et al. Inhibition of macrophage function prevents intestinal inflammation and postoperative ileus in rodents. Gut 2007; 56:176-185). […] Expression of mRNA was quantified in triplicate by a RT-PCR with gene expression assays for […] (MCP-1; #Mm00441242_m1), CCL3 (MIP-1α #Mm00441258_m1), IL-6 (Assay ID #Mm00446190_ml), TNF-α (#Mm00443258_m1) and ICAM-1 (#Mm00516023_m1). […] Data quantification was performed by the ΔΔCT method. […]

C57BL/6J mice = assay: Anastomotic wound healing (hydroxyproline content, bursting pressure), mouse; type: in vivo; conditions: 5 mg/kg i.v. 90 minutes before transection; POD 2, 5 and 10
Protocol: C57BL/6J mice were treated with 0 mg/kg (placebo) or 5 mg/kg CNI-1493 90 minutes before colonic transection followed by an anastomosis with 8-10 interrupted polypropylene 8.0 sutures. On postoperative days (POD) 2, 5 and 10 anastomotic tissue was investigated for disturbances of wound healing by measurement of hydroxyproline content and bursting pressure.
Hydroxyproline content was determined from an 1 cm perianastomotic region as described before (Woessner J. F., Jr. The determination of hydroxyproline in tissue and protein samples containing small proportions of this imino acid. Arch Biochem Biophys 1961; 93:440-447). Results were normalized as micrograms of hydroxyproline per gram tissue.
Anastomotic bursting pressure (ABP) was measured directly after sacrifice and sampling a 3 cm colonic segment including the anastomotic site. The anastomotic specimen was cleared from feces and ligated twice at the distal end using a 6-0 polyglactin (Vicryl™, Ethicon, Belgium) suture. An 18 G arterial catheter (Vygon, France) was inserted intraluminally within the specimen at the proximal end and two stay sutures were tied to prevent leakage. […] The intraluminal pressure (mmHg) was measured and recorded using a pressure transducer with an amplifier and recorded by the Biopac A/D systems (Biopac Systems, Goleta, USA). […]

[1] = system: circular smooth muscle of the graft; assay: Mechanical in vitro activity of mid-jejunum graft circular smooth muscle (bethanechol); type: in vivo, Lewis rats; conditions: 1 mg/kg i.v. 90 min before; 18 h reperfusion; 100 μmol/L bethanechol
Protocol: (§1) Syngeneic orthotopic small intestinal transplantation was performed in Lewis rats as previously described (Schwarz N T, Nakao A, Nalesnik M A, Kalff J C, Murase N, Bauer A J. Protective effects of ex vivo graft radiation and tacrolimus on syngeneic transplanted rat small bowel motility. Surgery 2002; 131: 413-423). […] Then the graft vascular bed was perfused with chilled UW solution (University of Wisconcin) and the intestinal lumen was irrigated with 50 ml cold 0.9% NaCl solution containing […]. neomycin sulfate (Uro Nebacetin N, Nycomed, Germany). The graft was stored in cold UW solution during the preparation of the recipient. […]
Mechanical in vitro activity of the mid-jejunum was evaluated at 18 hours after reperfusion using smooth muscle strips of the circular muscularis as described previously (N=8 each) (Kalff J C, Schraut W H, Simmons R L, Bauer A J. Surgical manipulation of the gut elicits an intestinal muscularis inflammatory response resulting in postsurgical ileus. Ann Surg 1998; 228: 652-663). […] The contractile response was analyzed with the ADI Chart© software and the contractions were calculated as grams per square millimeter per second by conversion of the weight and length of the strip to square millimeters of tissue.

[2] = system: apoptotic cells in graft muscularis; assay: Apoptosis within smooth muscle layer of grafts (TUNEL); type: in vivo, Lewis rats; conditions: 1 mg/kg
Protocol: as §1, with “recipient. An end-to-side anastomosis between the graft aorta and the recipient infra-renal aorta, and between the graft vein and recipient vena cava, was performed. Approximately 80% of the recipient intestine was removed and enteric continuity was restored by proximal and distal end-to-end intestinal anastomoses.” for “recipient.”
Apoptotic cells within the smooth muscle layer of the grafts were detected 3 and 18 h after reperfusion by detection of DNA double strand breaks with a commercially available TUNEL kit (Roche, Mannheim, Germany) according to the manufactures instructions.

Compound	reduction of MIP-1α expression (MIP-1α mRNA; 3 hours after IM) [%]	reduction of MIP-1α expression (MIP-1α mRNA; 6 hours after IM) [%]	anastomotic bursting pressure vs placebo (C57BL/6J mice)	anastomotic hydroxyproline content vs placebo (C57BL/6J mice)	circular smooth muscle contractile force [1] [grams/mm2/sec]	increase in circular smooth muscle contractile activity in comparison to the vehicle grafts [1] [%]	number of apoptotic bodies in muscularis ([2]; 3 h after reperfusion)	number of apoptotic bodies in muscularis ([2]; 18 h after reperfusion)
C/C(=N\N=C(N)N)c1cc(NC(=O)CCCCCCCCC(=O)Nc2cc(/C(C)=N/N=C(N)N)cc(/C(C)=N/N=C(N)N)c2)cc(/C(C)=N/N=C(N)N)c1.Cl.Cl.Cl.Cl [CNI-1493]	50	39	did not differ at any time	did not differ at any time	–	–	–	–
C/C(=N\N=C(N)N)c1cc(NC(=O)CCCCCCCCC(=O)Nc2cc(/C(C)=N/N=C(N)N)cc(/C(C)=N/N=C(N)N)c2)cc(/C(C)=N/N=C(N)N)c1.CS(=O)(=O)O.CS(=O)(=O)O.CS(=O)(=O)O.CS(=O)(=O)O [CPSI-2364]	–	–	–	–	3.63	96	21.0	7.2
